What was measured:
Type in all cases: physicochemical
[1] = Inhibition of dissolution in alkali developing solution; parameters: key: A: no change was visually noticed in the state of film; C: the surface was roughened or a part of the film was lost because of dissolution; details: resist film immersed in 2.38% aqueous solution of TMAH for 3 min
Description: (3) Inhibition of Dissolution in Alkali Developing Solution
The resist film formed in the evaluation 2 was immersed in a developing solution (2.38% aqueous solution of TMAH) for 3 min. The results were rated as “A” when no change was visually noticed in the state of film, and “C” when the surface was roughened or a part of the film was lost because of dissolution.

[2] = Solubility of compound in safety solvent; details: safety solvent (PGMEA or EL) at 23° C.
Description: (1) Solubility of Compound in Safety Solvent
Each compound was tested for its solubility in safety solvent (PGMEA or EL) at 23° C. The solubility was rated as “A” when dissolved in an amount of 5% by weight or more, “B” when dissolved in an amount of 0.1% by weight or more but less than 5% by weight, and “C” when not dissolved in an amount of 0.1% by weight or more.

[3] = Alkali developability; parameters: key: A: the resist film dissolved completely and disappeared; C: the resist film remained not dissolved even in a slight amount; details: tested on the corresponding polyphenol compound A before introducing the acid-dissociating group; film immersed in 2.38% aqueous TMAH for 10 s
Description: (5) Alkali Developability
A polyphenol compound A corresponding to each compound before introducing the acid-dissociating functional group was examined for its developability with an alkali developing solution.
A 10% by weight solution of each polyphenol compound A in PGMEA was spin-coated using a spin coater, to form a resist film of about 0.2 μm thick. After heating on a hot plate for 3 min at 110° C., the resist film was immersed in a 2.38% aqueous solution of TMAH for 10 s. The results were rated as “A” when the resist film dissolved completely and disappeared, and “C” when the resist film remained not dissolved even in a slight amount.

CCOC(C)Oc1ccc(C(C)(c2ccc(O)c(C)c2)c2ccc3ccccc3c2)cc1C (stereo not drawn) [Compound 5-4]
(3) Inhibition of dissolution in developing solution [1]: A
(1) Solubility in safety solvent [2]: A (dissolved in an amount of 5% by weight or more)
(5) Alkali developability [3]: A

Oc1ccc(C2(c3ccc(OC4CCCCO4)cc3)Cc3cccc4cccc2c34)cc1 (stereo not drawn) [Compound 8-1]
(3) Inhibition of dissolution in developing solution [1]: A
(1) Solubility in safety solvent [2]: A (dissolved in an amount of 5% by weight or more)
(5) Alkali developability [3]: A

CC(C)(C)OC(=O)Oc1ccc(C2(c3ccc(OC(=O)OC(C)(C)C)cc3)C(=O)c3cccc4cccc2c34)cc1 [Compound 8-4]
(3) Inhibition of dissolution in developing solution [1]: A
(1) Solubility in safety solvent [2]: A (dissolved in an amount of 5% by weight or more)
(5) Alkali developability [3]: A

CC(C)(C)OC(=O)Cc1cc(C2(c3cc(OC(=O)OC(C)(C)C)c(OC(=O)OC(C)(C)C)c(OC(=O)OC(C)(C)C)c3)c3ccccc3-c3ccccc32)cc(OC(=O)OC(C)(C)C)c1OC(=O)OC(C)(C)C [Compound 7-3]
(3) Inhibition of dissolution in developing solution [1]: A
(1) Solubility in safety solvent [2]: A (dissolved in an amount of 5% by weight or more)
(5) Alkali developability [3]: A
